Converted amounts (≈) assume the structure as drawn.
Assays:
Type in all cases: functional
Streptococcus pneumoniae [1] = test: Antimicrobial activity against multiple drug resistant Streptococcus pneumoniae serotype 6B by broth microdilution method
Streptococcus pneumoniae [2] = test: Antimicrobial activity against multiple drug resistant Streptococcus pneumoniae serotype 19A by broth microdilution method
Streptococcus pneumoniae [3] = test: Antimicrobial activity against multiple drug resistant Streptococcus pneumoniae serotype 19F by broth microdilution method
Streptococcus pneumoniae [4] = test: Antimicrobial activity against Streptococcus pneumoniae serotype 3 by broth microdilution method
Streptococcus pneumoniae [5] = test: Antimicrobial activity against Streptococcus pneumoniae serotype 6C by broth microdilution method
Streptococcus pneumoniae [6] = test: Antimicrobial activity against Streptococcus pneumoniae serotype 19A by broth microdilution method
Streptococcus pneumoniae [7] = test: Antimicrobial activity against Streptococcus pneumoniae serotype 35B by broth microdilution method
Streptococcus pneumoniae [8] = test: Antimicrobial activity against Streptococcus pneumoniae serotype 11A by broth microdilution method
Streptococcus pneumoniae [9] = test: Antimicrobial activity against Streptococcus pneumoniae serotype 7F by broth microdilution method
Streptococcus pneumoniae [10] = test: Antimicrobial activity against multiple drug resistant Streptococcus pneumoniae serotype 19F assessed as percent susceptible isolates by broth microdilution method
Streptococcus pneumoniae [11] = test: Antimicrobial activity against Streptococcus pneumoniae serotype 11A assessed as percent susceptible isolates by broth microdilution method
Streptococcus pneumoniae [12] = test: Antimicrobial activity against Streptococcus pneumoniae serotype 23B assessed as percent susceptible isolates by broth microdilution method
Streptococcus pneumoniae [13] = test: Antimicrobial activity against Streptococcus pneumoniae serotype 19A assessed as percent susceptible isolates by broth microdilution method
Streptococcus pneumoniae [14] = test: Antimicrobial activity against Streptococcus pneumoniae serotype 22F assessed as percent susceptible isolates by broth microdilution method
Streptococcus pneumoniae [15] = test: Antimicrobial activity against Streptococcus pneumoniae serotype 23A assessed as percent susceptible isolates by broth microdilution method
Streptococcus pneumoniae [16] = test: Antimicrobial activity against Streptococcus pneumoniae serotype 19F assessed as percent susceptible isolates by broth microdilution method
Streptococcus pneumoniae [17] = test: Antimicrobial activity against Streptococcus pneumoniae serotype 3 assessed as percent susceptible isolates by broth microdilution method
Streptococcus pneumoniae [18] = test: Antimicrobial activity against Streptococcus pneumoniae serotype 15A assessed as percent susceptible isolates by broth microdilution method
Streptococcus pneumoniae [19] = test: Antimicrobial activity against multiple drug resistant Streptococcus pneumoniae serotype 6B assessed as percent susceptible isolates by broth microdilution method
Streptococcus pneumoniae [20] = test: Antimicrobial activity against Streptococcus pneumoniae serotype 7F assessed as percent susceptible isolates by broth microdilution method
Streptococcus pneumoniae [21] = test: Antimicrobial activity against Streptococcus pneumoniae serotype 6C assessed as percent susceptible isolates by broth microdilution method
Streptococcus pneumoniae [22] = test: Antimicrobial activity against Streptococcus pneumoniae serotype 35B assessed as percent susceptible isolates by broth microdilution method
Streptococcus pneumoniae [23] = test: Antimicrobial activity against multiple drug resistant Streptococcus pneumoniae serotype 19A assessed as percent susceptible isolates by broth microdilution method

SMILES	MIC50 (Streptococcus pneumoniae [1]) [µg/mL]	MIC90 (Streptococcus pneumoniae [1]) [µg/mL]	MIC50 (Streptococcus pneumoniae [3]) [µg/mL]	MIC90 (Streptococcus pneumoniae [3]) [µg/mL]	MIC50 (Streptococcus pneumoniae [4]) [µg/mL]	MIC90 (Streptococcus pneumoniae [4]) [µg/mL]	MIC50 (Streptococcus pneumoniae [5]) [µg/mL]	MIC90 (Streptococcus pneumoniae [5]) [µg/mL]	MIC50 (Streptococcus pneumoniae [6]) [µg/mL]	MIC90 (Streptococcus pneumoniae [6]) [µg/mL]	MIC50 (Streptococcus pneumoniae [7]) [µg/mL]	MIC90 (Streptococcus pneumoniae [7]) [µg/mL]	MIC50 (Streptococcus pneumoniae [8]) [µg/mL]	MIC90 (Streptococcus pneumoniae [8]) [µg/mL]	MIC (Streptococcus pneumoniae [9]) [µg/mL]	MIC50 (Streptococcus pneumoniae [9]) [µg/mL]	MIC90 (Streptococcus pneumoniae [9]) [µg/mL]	Activity (Streptococcus pneumoniae [11]) [%]	Activity (Streptococcus pneumoniae [12]) [%]	Activity (Streptococcus pneumoniae [13]) [%]	also measured
CCO/N=C(\C(=O)N[C@@H]1C(=O)N2C(C(=O)[O-])=C(Sc3nc(-c4cc[n+](C)cc4)cs3)CS[C@H]12)c1nsc(NP(=O)(O)O)n1 [CEFTAROLINE FOSAMIL]	0.25 (≈ 0.365 µM)	0.25 (≈ 0.365 µM)	0.25 (≈ 0.365 µM)	0.25 (≈ 0.365 µM)	≤ 0.008	≤ 0.008	0.015 (≈ 0.0219 µM)	0.06 (≈ 0.0876 µM)	0.12 (≈ 0.175 µM)	0.25 (≈ 0.365 µM)	0.12 (≈ 0.175 µM)	0.12 (≈ 0.175 µM)	0.06 (≈ 0.0876 µM)	0.06 (≈ 0.0876 µM)	≤ 0.008	≤ 0.008	0.015 (≈ 0.0219 µM)	–	–	–	MIC50 (Streptococcus pneumoniae [2]): 0.25 µg/mL (≈ 0.365 µM); MIC90 (Streptococcus pneumoniae [2]): 0.25 µg/mL (≈ 0.365 µM); MIC (Streptococcus pneumoniae [4]): ≤ 0.008 µg/mL
CO/N=C(\C(=O)N[C@@H]1C(=O)N2C(C(=O)O)=C(CSc3nc(=O)c(O)nn3C)CS[C@H]12)c1csc(N)n1 [CEFTRIAXONE]	2 (≈ 3.61 µM)	4 (≈ 7.21 µM)	2 (≈ 3.61 µM)	4 (≈ 7.21 µM)	≤ 0.25	≤ 0.25	0.25 (≈ 0.451 µM)	0.25 (≈ 0.451 µM)	1 (≈ 1.8 µM)	2 (≈ 3.61 µM)	1 (≈ 1.8 µM)	1 (≈ 1.8 µM)	≤ 0.25	≤ 0.25	≤ 0.25	≤ 0.25	≤ 0.25	98	97	65.6	MIC50 (Streptococcus pneumoniae [2]): 2 µg/mL (≈ 3.61 µM); MIC90 (Streptococcus pneumoniae [2]): 4 µg/mL (≈ 7.21 µM); Activity (Streptococcus pneumoniae [10]): 43.9%; MIC (Streptococcus pneumoniae [4]): ≤ 0.25 µg/mL; Activity (Streptococcus pneumoniae [14]): 100%; Activity (Streptococcus pneumoniae [15]): 100%; Activity (Streptococcus pneumoniae [16]): 65.5%; Activity (Streptococcus pneumoniae [17]): 100%; Activity (Streptococcus pneumoniae [18]): 100%; Activity (Streptococcus pneumoniae [19]): 43.9%; Activity (Streptococcus pneumoniae [20]): 98.3%; MIC (Streptococcus pneumoniae [8]): ≤ 0.25 µg/mL; Activity (Streptococcus pneumoniae [21]): 100%; Activity (Streptococcus pneumoniae [22]): 98.3%; Activity (Streptococcus pneumoniae [23]): 43.9%
CO/N=C(\C(=O)N[C@@H]1C(=O)N2C(C(=O)O)=C(COC(N)=O)CS[C@H]12)c1ccco1 [CEFUROXIME]	8 (≈ 18.9 µM)	> 8	8 (≈ 18.9 µM)	> 8	≤ 1	≤ 1	2 (≈ 4.71 µM)	4 (≈ 9.43 µM)	8 (≈ 18.9 µM)	> 8	4 (≈ 9.43 µM)	4 (≈ 9.43 µM)	≤ 1	≤ 1	≤ 1	≤ 1	≤ 1	95.2	96.8	36.1	MIC50 (Streptococcus pneumoniae [2]): 8 µg/mL (≈ 18.9 µM); Activity (Streptococcus pneumoniae [10]): 0%; MIC (Streptococcus pneumoniae [4]): ≤ 1 µg/mL; Activity (Streptococcus pneumoniae [14]): 100%; Activity (Streptococcus pneumoniae [15]): 96.4%; Activity (Streptococcus pneumoniae [16]): 20.7%; Activity (Streptococcus pneumoniae [17]): 100%; Activity (Streptococcus pneumoniae [18]): 91.4%; Activity (Streptococcus pneumoniae [19]): 0%; Activity (Streptococcus pneumoniae [20]): 9.6%; MIC (Streptococcus pneumoniae [8]): ≤ 1 µg/mL; Activity (Streptococcus pneumoniae [21]): 47.5%; Activity (Streptococcus pneumoniae [22]): 9.6%; Activity (Streptococcus pneumoniae [23]): 0%
CCC[C@@H]1C[C@@H](C(=O)N[C@@H]([C@H]2O[C@H](SC)[C@H](O)[C@@H](O)[C@H]2O)[C@H](C)Cl)N(C)C1 [CLINDAMYCIN]	> 2	> 2	> 2	> 2	≤ 0.25	≤ 0.25	≤ 0.25	≤ 0.25	> 2	> 2	≤ 0.25	≤ 0.25	≤ 0.25	≤ 0.25	≤ 0.25	≤ 0.25	≤ 0.25	95.9	100	43.4	MIC (Streptococcus pneumoniae [2]): > 1 µg/mL; Activity (Streptococcus pneumoniae [10]): 0%; Activity (Streptococcus pneumoniae [14]): 100%; Activity (Streptococcus pneumoniae [15]): 81.8%; Activity (Streptococcus pneumoniae [16]): 31%; Activity (Streptococcus pneumoniae [17]): 96.3%; Activity (Streptococcus pneumoniae [18]): 10.5%; Activity (Streptococcus pneumoniae [19]): 0%; MIC (Streptococcus pneumoniae [7]): ≤ 0.25 µg/mL; Activity (Streptococcus pneumoniae [20]): 100%; Activity (Streptococcus pneumoniae [21]): 97.7%; Activity (Streptococcus pneumoniae [22]): 100%; Activity (Streptococcus pneumoniae [23]): 0%
CC[C@H]1OC(=O)[C@H](C)[C@@H](O[C@H]2C[C@@](C)(OC)[C@@H](O)[C@H](C)O2)[C@H](C)[C@@H](O[C@@H]2O[C@H](C)C[C@H](N(C)C)[C@H]2O)[C@](C)(O)C[C@@H](C)C(=O)[C@H](C)[C@@H](O)[C@]1(C)O [ERYTHROMYCIN]	> 8	> 8	> 8	> 8	≤ 0.25	≤ 0.25	> 2	> 2	> 2	> 2	≤ 0.25	> 2	≤ 0.25	> 2	≤ 0.25	≤ 0.25	≤ 0.25	75.5	75.8	26.5	MIC (Streptococcus pneumoniae [1]): > 8 µg/mL; MIC (Streptococcus pneumoniae [2]): > 8 µg/mL; MIC50 (Streptococcus pneumoniae [2]): > 8 µg/mL; MIC90 (Streptococcus pneumoniae [2]): > 8 µg/mL; Activity (Streptococcus pneumoniae [10]): 0%; MIC (Streptococcus pneumoniae [3]): > 8 µg/mL; Activity (Streptococcus pneumoniae [14]): 88.6%; Activity (Streptococcus pneumoniae [15]): 78.8%; Activity (Streptococcus pneumoniae [16]): 17.2%; Activity (Streptococcus pneumoniae [17]): 95.1%; Activity (Streptococcus pneumoniae [18]): 5.3%; Activity (Streptococcus pneumoniae [19]): 0%; Activity (Streptococcus pneumoniae [20]): 64.4%; Activity (Streptococcus pneumoniae [21]): 41.9%; Activity (Streptococcus pneumoniae [22]): 64.4%; Activity (Streptococcus pneumoniae [23]): 0%
C[C@@H](O)[C@H]1C(=O)N2C(C(=O)O)=C(SCCNC=N)C[C@H]12 [IMIPENEM ANHYDROUS]	1 (≈ 3.34 µM)	1 (≈ 3.34 µM)	1 (≈ 3.34 µM)	1 (≈ 3.34 µM)	≤ 0.12	≤ 0.12	≤ 0.12	≤ 0.12	0.5 (≈ 1.67 µM)	1 (≈ 3.34 µM)	0.25 (≈ 0.835 µM)	0.5 (≈ 1.67 µM)	≤ 0.12	≤ 0.12	≤ 0.12	≤ 0.12	≤ 0.12	95.9	100	40.2	MIC50 (Streptococcus pneumoniae [2]): 1 µg/mL (≈ 3.34 µM); MIC90 (Streptococcus pneumoniae [2]): 1 µg/mL (≈ 3.34 µM); Activity (Streptococcus pneumoniae [10]): 0.8%; MIC (Streptococcus pneumoniae [4]): ≤ 0.12 µg/mL; Activity (Streptococcus pneumoniae [14]): 100%; Activity (Streptococcus pneumoniae [15]): 100%; MIC (Streptococcus pneumoniae [5]): ≤ 0.12 µg/mL; Activity (Streptococcus pneumoniae [16]): 20.7%; Activity (Streptococcus pneumoniae [17]): 100%; Activity (Streptococcus pneumoniae [18]): 100%; Activity (Streptococcus pneumoniae [19]): 0.8%; Activity (Streptococcus pneumoniae [20]): 15.3%; MIC (Streptococcus pneumoniae [8]): ≤ 0.12 µg/mL; Activity (Streptococcus pneumoniae [21]): 90.7%; Activity (Streptococcus pneumoniae [22]): 15.3%; Activity (Streptococcus pneumoniae [23]): 0.8%
CC(=O)NC[C@H]1CN(c2ccc(N3CCOCC3)c(F)c2)C(=O)O1 [LINEZOLID]	0.5 (≈ 1.48 µM)	1 (≈ 2.96 µM)	0.5 (≈ 1.48 µM)	1 (≈ 2.96 µM)	0.5 (≈ 1.48 µM)	1 (≈ 2.96 µM)	1 (≈ 2.96 µM)	1 (≈ 2.96 µM)	0.5 (≈ 1.48 µM)	1 (≈ 2.96 µM)	1 (≈ 2.96 µM)	1 (≈ 2.96 µM)	1 (≈ 2.96 µM)	1 (≈ 2.96 µM)	–	0.5 (≈ 1.48 µM)	1 (≈ 2.96 µM)	100	100	100	MIC50 (Streptococcus pneumoniae [2]): 0.5 µg/mL (≈ 1.48 µM); MIC90 (Streptococcus pneumoniae [2]): 1 µg/mL (≈ 2.96 µM); Activity (Streptococcus pneumoniae [14]): 100%; Activity (Streptococcus pneumoniae [15]): 100%; Activity (Streptococcus pneumoniae [16]): 100%; Activity (Streptococcus pneumoniae [17]): 100%; Activity (Streptococcus pneumoniae [18]): 100%; Activity (Streptococcus pneumoniae [20]): 100%; Activity (Streptococcus pneumoniae [21]): 100%; Activity (Streptococcus pneumoniae [22]): 100%
COc1c(N2C[C@@H]3CCCN[C@@H]3C2)c(F)cc2c(=O)c(C(=O)O)cn(C3CC3)c12 [MOXIFLOXACIN]	–	–	–	–	≤ 0.5	≤ 0.5	≤ 0.5	≤ 0.5	≤ 0.5	≤ 0.5	≤ 0.5	≤ 0.5	≤ 0.5	≤ 0.5	≤ 0.5	≤ 0.5	≤ 0.5	100	97	100	Activity (Streptococcus pneumoniae [10]): 99.2%; MIC (Streptococcus pneumoniae [4]): ≤ 0.5 µg/mL; Activity (Streptococcus pneumoniae [14]): 100%; Activity (Streptococcus pneumoniae [15]): 100%; MIC (Streptococcus pneumoniae [5]): ≤ 0.5 µg/mL; Activity (Streptococcus pneumoniae [16]): 96.6%; MIC (Streptococcus pneumoniae [6]): ≤ 0.5 µg/mL; Activity (Streptococcus pneumoniae [17]): 100%; Activity (Streptococcus pneumoniae [18]): 100%; Activity (Streptococcus pneumoniae [19]): 99.2%; MIC (Streptococcus pneumoniae [7]): ≤ 0.5 µg/mL; Activity (Streptococcus pneumoniae [20]): 100%; MIC (Streptococcus pneumoniae [8]): ≤ 0.5 µg/mL; Activity (Streptococcus pneumoniae [21]): 100%; Activity (Streptococcus pneumoniae [22]): 100%; Activity (Streptococcus pneumoniae [23]): 99.2%

Reference: ChEMBL document CHEMBL1671689, “Activity of ceftaroline against recent emerging serotypes of Streptococcus pneumoniae in the United States” (2010)
